Values joined by “and” are separate entries in the source; they are usually repeats but may differ in a detail not shown here. Equal entries are not always repeated. “Also recorded” adds a separate entry of the source. Where two headings read alike, the source gives them in different places.
Key:
[1] = parameters: species or system mouse (Charles River CD-1); details: mouse, in vivo
[2] = Mouse Carrageenan Edema Test; format: in vivo, mouse (Charles River CD-1, female); details: 3 h after carrageenan; for Paw Volume (edema volume): ± S.D.
Protocol: The basic experimental procedure was adapted from Sophia et al., J. Pharma. Exper. Ther. 186:646, 1973. Charles Rivier CD-1 female mice (20-25 g) were given a dose of either Δ^1 -THC-7-oic-acid, indomethacin or vehicle (control). All compounds were administered orally in a 20 ul volume of peanut oil. One hour later, 0.05 ml of a 1% solution of calcium carrageenan in saline was injected subcutaneously into the plantar surface of the right hind paw. The volume of the injected foot to the level of the lateral malleolus was measured by water displacement immediately before oral drug administration and again three hours after carrageenan injection. The difference between the two measurements was called edema volume. The effectiveness of each compound was analyzed in the following manner. For Δ^1 -THC-7-oic-acid, the mean paw volumes, before and after the metabolite was administered, were statistically compared by one-way ANOVA (analysis of variance) and Fisher PLSD Scheffe t-tests. For indomethacin, the mean paw volumes, pre- and postdrug, were statistically compared using the student's t-test. The percent inhibition of edema volume was obtained from the ratio of the predrug volume to the postdrug volume (Table II).

Rat Ulcerogenicity Test = format: in vivo, rat (Charles River CD); details: for Incidence (number of rats with lesions/total tested) / Mean Score of gastric mucosal lesions: stomach tube, 1 h; for Mean Score of gastric mucosal lesions: scale 0 (normal mucosa) to 3 (erosions longer than 5 mm or confluent hemorrhages)
Protocol: Experimental groups of 5-11 rats (Charles River CD) were fasted for 24 hours before the administration of either aspirin, Δ^1 -THC-7-oic-acid or indomethacin by a rubber stomach tube (Rusch No. 8). The animals were killed 1 hour later by carbon dioxide asphyxiation. At that time, 4 ml of 10% aqueous buffered formaldehyde (formalin) was injected directly into the stomach of each animal. This in situ intraluminal fixation with formalin was especially critical for the assessment of small gastric erosions induced by aspirin since the overlying hemorrhage could easily be removed by rinsing the unfixed stomach. After 5 minutes of in situ fixation, the stomach and proximal duodenum were removed, opened along the greater curvature, pinned on a cork with mucosa upward, and immersed in 10% formaldehyde until further processing (Szabo, S. et al, J. Pharmacol. Meth. 13:59-66, 1985). The gastric lesions were then evaluated by direct visual inspection.
For comparative purposes, a semiquantitative scale of 0-3 was used to assess the extent of gastric mucosal lesions (Scabo et al., 1981, 1983). According to this scale, a score of 0 indicates a normal mucosa; 1 represents the appearance of between 1 and 4 small petechiae; 2 indicates the presence of 5 or more petechiae or hemmorhagic streaks up to 4 mm in length; 3 represents the appearance of erosions longer than 5 mm or confluent hemorrhages.

[3] = humans; cited from earlier work
[4] = rhesus monkey; cited from earlier work
[5] = tested on: prostaglandin synthetase system; details: variety of models; cited from earlier work
prostaglandin synthesis = details: metabolite added to culture medium prior to THC exposure; cited from earlier work

SMILES	analgesic (pain-relieving) effect / potency relative to naproxen ([1]; po)	% Inhibition of Edema Volume ([2]; 20 mg/kg oral) [%]	Paw Volume (edema volume) ([2]; 20 mg/kg oral) [µL]	% Inhibition of Edema Volume ([2]; 40 mg/kg oral) [%]	Paw Volume (edema volume) ([2]; 40 mg/kg oral) [µL]	ulcer / gastric lesion formation (in words) (Rat Ulcerogenicity Test; 50 mg/kg, directly into the stomach)	Incidence (number of rats with lesions/total tested) (Rat Ulcerogenicity Test; 50 mg/kg)	Mean Score of gastric mucosal lesions (Rat Ulcerogenicity Test; 50 mg/kg)	behavioral activity and cardiovascular effects [3]	behavioral activity and cardiovascular effects [4]	inhibition of the prostaglandin synthetase system [5]	antagonism of the stimulatory effect of THC on prostaglandin synthesis (prostaglandin synthesis)	gastric lesions / gastrointestinal damage (in words) (Rat Ulcerogenicity Test; 100 mg/kg, half the therapeutic dose, into the stomach)	Incidence (number of rats with lesions/total tested) (Rat Ulcerogenicity Test; 100 mg/kg)	Mean Score of gastric mucosal lesions (Rat Ulcerogenicity Test; 100 mg/kg)	Latency (percent change of the mean reaction time compared to predrug values) [1]	Incidence (number of rats with lesions/total tested) (Rat Ulcerogenicity Test; 10 mg/kg)	Mean Score of gastric mucosal lesions (Rat Ulcerogenicity Test; 10 mg/kg)	Incidence (number of rats with lesions/total tested) (Rat Ulcerogenicity Test; 20 mg/kg)	Mean Score of gastric mucosal lesions (Rat Ulcerogenicity Test; 20 mg/kg)
CCCCCc1cc(O)c2c(c1)OC(C)(C)[C@@H]1CCC(C(=O)O)=CC21 (single isomer, unassigned) [Δ^1 -THC-7-oic-acid]	merely equivalent to that of naproxen; also recorded: exhibits analgesic activity with a potency similar to that of naproxen	53	9 ± 12	79	4 ± 13	did not induce ulcer formation; also recorded: does not induce the formation of gastric lesions	0/10	0.0	did not show the behavioral activity or the cardiovascular effects characteristic of the parent substance, THC	did not show the behavioral activity or the cardiovascular effects characteristic of the parent substance, THC	potent inhibitor of the prostaglandin synthetase system	dramatic lowering of the stimulatory effect of THC on prostaglandin synthesis								
CC(=O)Oc1ccccc1C(=O)O [Aspirin]													induced the formation of gastric lesions in each test animal; also recorded: each of the experimental animals experiences gastrointestinal damage	10/10	1.9					
COc1ccc2c(c1)c(CC(=O)O)c(C)n2C(=O)c1ccc(Cl)cc1 [Indomethacin, reference compound]		100	-13 ± 17													52.7 and 51.1	2/5	0.6	6/11	0.77
